{
  "source": "patent US11752147B2",
  "about": "“Pharmaceutical composition for the treatment of pain” (AZIENDE CHIMICHE RIUNITE ANGELINI FRANCESCO A.C.R.A.F. …, priority 2015, dated 2023)",
  "key": {"[1]": {"system": "acetic acid-induced writhing in mice", "assay": "Acetic acid-induced writhing test in mice", "conditions": "vs vehicle", "quoted_text": "(§1) The test compounds were evaluated in the model of acetic acid-induced writhing in mice (Stock J. L. et al., J. Clin. Inv. 2001, 107: 325 331).\n(§2) Writhing test is a chemical method used to induce pain of peripheral origin by injection of acetic acid in mice. Analgesic activity is inferred from decrease in the frequency of writhing.\n(§3) This test allowed evaluation of the antinociceptive activity of the compounds of the invention in a model of inflammatory pain.\n(§4) Writhing is defined as a stretch, tension to one side, extension of hind legs, contraction of the abdomen so that the abdomen of mice touches the floor, turning the trunk (twist).\n(§5) Male CD-1 mice weighing 20-25 g were used for the test.\n(§6) One hour after the treatment, an intraperitoneal injection of acetic acid (0.7% v/v in physiological saline, 16 μl/g of body weight) was given to the mice to induce inflammatory pain and to check the effects of the test compound on the nociceptive response.\n(§7) Five minutes after the administration of acetic acid and for the following 10 minutes the number of writhes was measured, which represents the parameter for evaluation of the nociceptive response. The analgesic activity is evaluated as % inhibition."}, "[2]": {"system": "allodynia induced by ligature of the sciatic nerve in rats", "assay": "Ligature of the sciatic nerve in rats (allodynia, von Frey)", "type": "in vivo", "conditions": "one hour after administration, vs vehicle", "procedure": "Male CD rats weighing 200-250 g on arrival were used.\nThe allodynia was induced by ligature under anaesthesia of the sciatic nerve of the left hind leg [Seltzer Z, Dubner R, Shir Y. A novel behavioural model of neuropathic pain disorders produced in rats by partial sciatic nerve injury. Pain 1990; 43: 205-218; Bennet G J, Xie Y K. A peripheral mononeuropathy in rat that produces disorders of pain sensation like those seen in man. Pain 1988; 33: 87-107].\nThe pain threshold was measured with a von Frey machine, which makes it possible, by applying a gradual increase in pressure to the paw of the left hind leg of the rat, to record the nociceptive response, expressed in grams, corresponding to the moment at which the animal withdraws the leg.\nAfter-treatment measurement was made at one hour following administration. The analgesic activity is evaluated as % reversal."}, "[3]": {"system": "acetic acid-induced writhing in mice", "conditions": "mouse, in vivo, po", "quoted_text": "as §1, §2, §3, §4, §5, §6, §7"}},
  "data": [
    {"smiles": "NCC1(CC(=O)O)CCCCC1", "note": "[Gabapentin, gabapentin]", "values": [
      {"measurement": "Writhing number reduction %", "setting": "[1]; Table 2 TEST 1 (FIG. 2a), 1.5 mg/kg oral", "result": 27.1, "unit": "%"},
      {"measurement": "Writhing number reduction %", "setting": "[1]; Table 2 TEST 2 (FIG. 2b), 5 mg/kg oral", "result": 38.1, "unit": "%"},
      {"measurement": "Writhing number reduction %", "setting": "[1]; Table 2 TEST 3 (FIG. 2c), 15 mg/kg oral", "result": 45.9, "unit": "%"},
      {"measurement": "Writhing number reduction %", "setting": "[1]; Table 3 TEST 1 RATIO 1:20, 1.5 mg/kg oral", "result": 29.2, "unit": "%"},
      {"measurement": "Writhing number reduction %", "setting": "[1]; Table 3 TEST 2 RATIO 1:10, 1.5 mg/kg oral", "result": 27.1, "unit": "%"},
      {"measurement": "Writhing number reduction %", "setting": "[1]; Table 3 TEST 3 RATIO 1:5, 0.75 mg/kg oral", "result": 22.4, "unit": "%"},
      {"measurement": "Writhing number reduction %", "setting": "[1]; Table 3 TEST 4 RATIO 1:1, 0.15 mg/kg gabapentin oral", "result": 28.3, "unit": "%"},
      {"measurement": "Writhing number reduction %", "setting": "[1]; Table 3 TEST 5 RATIO 5:1, 0.15 mg/kg oral", "result": 30.2, "unit": "%"},
      {"measurement": "Writhing number reduction %", "setting": "[1]; Table 3 TEST 6 RATIO 10:1, 0.15 mg/kg oral", "result": 27.2, "unit": "%"},
      {"measurement": "Reversal %", "setting": "[2]; 3.0 mg/kg", "result": 3.7, "unit": "%"},
      {"measurement": "Reversal %", "setting": "[2]; 100 mg/kg (effective amount)", "result": 37.0, "unit": "%"}
    ]},
    {"smiles": "O=c1n(CCCN2CCN(c3cccc(Cl)c3)CC2)nc2ccccn12", "note": "[Trazodone, trazodone]", "values": [
      {"measurement": "ED50", "setting": "[3]", "result": 1.2, "unit": "mg/kg"},
      {"measurement": "Writhing number reduction %", "setting": "[1]; Table 2 TEST 1 (FIG. 2a), 0.15 mg/kg oral", "result": 16.0, "unit": "%"},
      {"measurement": "Writhing number reduction %", "setting": "[1]; Table 2 TEST 2 (FIG. 2b), 0.5 mg/kg oral", "result": 44.4, "unit": "%"},
      {"measurement": "Writhing number reduction %", "setting": "[1]; Table 2 TEST 3 (FIG. 2c), 1.5 mg/kg oral", "result": 57.1, "unit": "%"},
      {"measurement": "Writhing number reduction %", "setting": "[1]; Table 3 TEST 1 RATIO 1:20, 0.075 mg/kg oral", "result": 2.1, "unit": "%"},
      {"measurement": "Writhing number reduction %", "setting": "[1]; Table 3 TEST 2 RATIO 1:10, 0.15 mg/kg oral", "result": 16.0, "unit": "%"},
      {"measurement": "Writhing number reduction %", "setting": "[1]; Table 3 TEST 3 RATIO 1:5, 0.15 mg/kg oral", "result": 16.3, "unit": "%"},
      {"measurement": "Writhing number reduction %", "setting": "[1]; Table 3 TEST 4 RATIO 1:1, 0.15 mg/kg trazodone oral", "result": 12.2, "unit": "%"},
      {"measurement": "Writhing number reduction %", "setting": "[1]; Table 3 TEST 5 RATIO 5:1, 0.75 mg/kg oral", "result": 57.4, "unit": "%"},
      {"measurement": "Writhing number reduction %", "setting": "[1]; Table 3 TEST 6 RATIO 10:1, 1.5 mg/kg oral", "result": 59.7, "unit": "%"},
      {"measurement": "Reversal %", "setting": "[2]; 0.3 mg/kg", "result": 3.1, "unit": "%"}
    ]}
  ]
}
